The target of test [1] is Cholinesterase (Homo sapiens, UniProt P06276).
Description: Inhibition of recombinant human serum BChE using butyrylthiocholine iodide as substrate by spectroscopic Ellmans method
Test [2] has as its target Acetylcholinesterase (Homo sapiens, UniProt P22303).
Description: Inhibition of recombinant human AChE using acetylthiocholine iodide as substrate by spectroscopic Ellmans method
The target of test [3] is Acetylcholinesterase (Electrophorus electricus, UniProt O42275).
Description: Inhibition of Electrophorus electricus AChE using acetylthiocholine iodide as substrate by spectroscopic Ellmans method

SMILES strings stand for the structures. Where only a bound is given, the exact number is not on record here.

Acetylcholinesterase (Electrophorus electricus, UniProt O42275), sequence (O42275 whole entry): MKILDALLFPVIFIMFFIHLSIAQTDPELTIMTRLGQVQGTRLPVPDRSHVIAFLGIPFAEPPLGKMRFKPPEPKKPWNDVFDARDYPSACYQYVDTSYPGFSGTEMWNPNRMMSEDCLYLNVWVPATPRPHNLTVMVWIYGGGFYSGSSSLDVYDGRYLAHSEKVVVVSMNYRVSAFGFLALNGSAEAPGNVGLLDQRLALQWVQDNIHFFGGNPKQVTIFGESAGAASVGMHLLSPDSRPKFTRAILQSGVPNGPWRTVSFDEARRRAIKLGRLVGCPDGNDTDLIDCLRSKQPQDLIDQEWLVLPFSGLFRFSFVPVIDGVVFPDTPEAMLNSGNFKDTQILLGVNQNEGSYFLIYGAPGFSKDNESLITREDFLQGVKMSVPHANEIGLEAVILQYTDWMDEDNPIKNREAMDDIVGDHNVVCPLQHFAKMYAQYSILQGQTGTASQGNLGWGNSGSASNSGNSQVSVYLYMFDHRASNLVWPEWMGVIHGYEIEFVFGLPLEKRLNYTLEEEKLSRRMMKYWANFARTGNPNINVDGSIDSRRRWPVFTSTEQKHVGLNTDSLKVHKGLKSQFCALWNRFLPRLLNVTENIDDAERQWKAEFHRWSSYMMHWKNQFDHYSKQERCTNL
Cholinesterase, sequence (P06276 whole entry): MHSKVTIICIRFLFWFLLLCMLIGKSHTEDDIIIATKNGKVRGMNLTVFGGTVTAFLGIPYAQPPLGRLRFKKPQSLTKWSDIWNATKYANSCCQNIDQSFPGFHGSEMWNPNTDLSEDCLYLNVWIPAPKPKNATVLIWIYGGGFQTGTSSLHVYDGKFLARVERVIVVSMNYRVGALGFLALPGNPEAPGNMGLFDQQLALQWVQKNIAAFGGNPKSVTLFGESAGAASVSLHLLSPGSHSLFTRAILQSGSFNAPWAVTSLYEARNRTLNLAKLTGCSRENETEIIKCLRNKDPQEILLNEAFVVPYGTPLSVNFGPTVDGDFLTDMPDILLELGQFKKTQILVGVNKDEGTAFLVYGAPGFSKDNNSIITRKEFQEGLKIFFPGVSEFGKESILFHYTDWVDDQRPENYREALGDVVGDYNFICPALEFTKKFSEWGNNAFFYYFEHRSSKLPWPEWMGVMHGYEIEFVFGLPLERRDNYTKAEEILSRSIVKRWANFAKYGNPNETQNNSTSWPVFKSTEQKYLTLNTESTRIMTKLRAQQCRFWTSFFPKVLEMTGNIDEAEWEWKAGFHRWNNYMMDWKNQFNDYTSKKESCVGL
Acetylcholinesterase (Homo sapiens, UniProt P22303), sequence (P22303 whole entry): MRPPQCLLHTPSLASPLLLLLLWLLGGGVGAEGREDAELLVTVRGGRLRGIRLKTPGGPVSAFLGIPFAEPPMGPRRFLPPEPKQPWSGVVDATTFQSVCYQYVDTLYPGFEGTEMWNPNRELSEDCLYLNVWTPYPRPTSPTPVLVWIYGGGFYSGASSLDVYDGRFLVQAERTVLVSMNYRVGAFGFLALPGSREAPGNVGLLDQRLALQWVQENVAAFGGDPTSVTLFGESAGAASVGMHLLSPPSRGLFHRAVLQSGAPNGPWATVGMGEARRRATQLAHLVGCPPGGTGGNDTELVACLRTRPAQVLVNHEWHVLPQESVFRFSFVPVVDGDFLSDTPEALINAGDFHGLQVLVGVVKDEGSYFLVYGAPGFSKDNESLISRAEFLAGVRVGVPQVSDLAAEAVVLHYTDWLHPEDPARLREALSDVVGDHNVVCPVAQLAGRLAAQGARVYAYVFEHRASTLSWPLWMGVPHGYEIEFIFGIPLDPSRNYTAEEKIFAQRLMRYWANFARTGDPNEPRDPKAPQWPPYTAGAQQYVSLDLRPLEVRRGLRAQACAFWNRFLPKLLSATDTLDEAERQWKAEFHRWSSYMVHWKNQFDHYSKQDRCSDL

A word on the IC50: it is the concentration that gives 50% inhibition. Lower therefore signals greater potency. Take `CC(C)C1=N[C@H]2CC[C@]34C[C@]35C(=O)C[C@]3(C)[C@@H]([C@H](C)N(C)Cc6ccc(C(F)(F)F)cc6)[C@H](O)C[C@@]3(C)[C@@H]5CC[C@H]4[C@]2(C)CS1`: the IC50 was over 10000 nM in test [1], 3 nM in test [2] and 7 nM in test [3].

With `CC(C)C1=N[C@H]2CC[C@]34C[C@]35C(=O)C[C@]3(C)[C@@H]([C@H](C)N(C)C)[C@H](O)C[C@@]3(C)[C@@H]5CC[C@H]4[C@]2(C)CS1`, the IC50 in test [1] stood at 5370 nM; in test [2] it was 60 nM; in test [3], 38 nM.

For the compound `CC(C)C1=N[C@H]2CC[C@]34C[C@]35C(=O)C[C@]3(C)[C@@H]([C@H](C)N(C)Cc6ccccc6C(F)(F)F)[C@H](O)C[C@@]3(C)[C@@H]5CC[C@H]4[C@]2(C)CS1`, the values for the IC50 in test [1], in test [2] and in test [3] were over 10000 nM, 11 nM and 24 nM, respectively.

Take `CC(C)C1=N[C@H]2CC[C@]34C[C@]35C(=O)C[C@]3(C)[C@@H]([C@H](C)N(C)CCc6ccccc6)[C@H](O)C[C@@]3(C)[C@@H]5CC[C@H]4[C@]2(C)CS1`: the IC50 was 501 nM in test [1], 20 nM in test [2] and 14 nM in test [3].

For the compound `COc1ccc(CN(C)[C@@H](C)[C@H]2[C@H](O)C[C@@]3(C)[C@@H]4CC[C@H]5[C@]6(C)CSC(C(C)C)=N[C@H]6CC[C@@]56C[C@@]46C(=O)C[C@]23C)cc1`, the IC50 was determined as 217 nM in test [1], 9 nM in test [2] and 18 nM in test [3].

The compound `CC(C)C1=N[C@H]2CC[C@]34C[C@]35C(=O)C[C@]3(C)[C@@H]([C@H](C)N(C)C)[C@H](O)C[C@@]3(C)[C@@H]5CC[C@H]4[C@]2(C)CN1` returned an IC50 in test [3] of over 10000 nM.

As to `CC(C)C1=N[C@H]2CC[C@]34C[C@]35C(=O)C[C@]3(C)[C@@H]([C@H](C)N(C)C(=O)OC(C)(C)C)[C@H](O)C[C@@]3(C)[C@@H]5CC[C@H]4[C@]2(C)CS1`, the IC50 in test [1] is over 10000 nM; in test [2], 159 nM; in test [3], 186 nM.

Regarding `CC(C)C1=N[C@H]2CC[C@]34C[C@]35C(=O)C[C@]3(C)[C@@H]([C@H](C)N(C)C)[C@H](O)C[C@@]3(C)[C@@H]5CC[C@H]4[C@]2(C)N1`, the values for the IC50 in test [1], in test [2] and in test [3] were 7220 nM, over 10000 nM and over 10000 nM, respectively.

Regarding `CC(C)C1=N[C@H]2CC[C@]34C[C@]35C(=O)C[C@]3(C)[C@@H]([C@H](C)N(C)C)[C@H](O)C[C@@]3(C)[C@@H]5CC[C@H]4[C@]2(C)CN1C`, the figures for the IC50 in test [1], in test [2] and in test [3] were 2950 nM, over 10000 nM and over 10000 nM, respectively.

Consider `C[C@@H]([C@H]1[C@H](O)C[C@@]2(C)[C@@H]3CC[C@H]4[C@]5(C)COC(C(C)(C)F)=N[C@H]5CC[C@@]45C[C@@]35C(=O)C[C@]12C)N(C)C`, for which the IC50 in test [1] was over 10000 nM; in test [2], 744 nM; in test [3], 336 nM.

On to `C[C@@H]([C@H]1[C@H](O)C[C@@]2(C)[C@@H]3CC[C@H]4[C@]5(C)COC(C(F)(F)F)=N[C@H]5CC[C@@]45C[C@@]35C(=O)C[C@]12C)N(C)C`, for which the IC50 in test [1], in test [2] and in test [3] was over 10000 nM throughout.

On to `CC(=O)N(C)[C@@H](C)[C@H]1[C@H](O)C[C@@]2(C)[C@@H]3CC[C@H]4[C@]5(C)CSC(C(C)C)=N[C@H]5CC[C@@]45C[C@@]35C(=O)C[C@]12C`, for which the figures for the IC50 in test [1], in test [2] and in test [3] were over 10000 nM, 298 nM and 139 nM, respectively.

As to `CN[C@@H](C)[C@H]1[C@H](O)C[C@@]2(C)[C@@H]3CC[C@H]4[C@]5(C)CSC(C(C)C)=N[C@H]5CC[C@@]45C[C@@]35C(=O)C[C@]12C`, the IC50 in test [1] was determined as 1340 nM; in test [2], 76 nM; in test [3], 45 nM.

`COc1ccccc1CN(C)[C@@H](C)[C@H]1[C@H](O)C[C@@]2(C)[C@@H]3CC[C@H]4[C@]5(C)CSC(C(C)C)=N[C@H]5CC[C@@]45C[C@@]35C(=O)C[C@]12C`: the results for the IC50 in test [1], in test [2] and in test [3] were 333 nM, 6 nM and 12 nM, respectively.

Regarding `CC(C)C1=N[C@H]2CC[C@]34C[C@]35C(=O)C[C@]3(C)[C@@H]([C@H](C)N(C)Cc6ccccc6)[C@H](O)C[C@@]3(C)[C@@H]5CC[C@H]4[C@]2(C)CS1`, the half-inhibitory concentration (IC50) in test [1] came to 554 nM; in test [2], 7 nM; in test [3] it was 13 nM.

`CC(C)C1=N[C@H]2CC[C@]34C[C@]35C(=O)C[C@]3(C)[C@@H]([C@H](C)N(C)C(=O)c6ccccc6)[C@H](O)C[C@@]3(C)[C@@H]5CC[C@H]4[C@]2(C)CS1`: the IC50 in test [1] is over 1000 nM; in test [2], 43 nM; in test [3] it was 37 nM.

On to `COc1cccc(CN(C)[C@@H](C)[C@H]2[C@H](O)C[C@@]3(C)[C@@H]4CC[C@H]5[C@]6(C)CSC(C(C)C)=N[C@H]6CC[C@@]56C[C@@]46C(=O)C[C@]23C)c1`, for which the IC50 stood at 477 nM in test [1], 3 nM in test [2] and 6 nM in test [3].

Regarding `CC(C)C1=N[C@H]2CC[C@]34C[C@]35C(=O)C[C@]3(C)[C@@H]([C@H](C)N(C)CCCN6C(=O)c7ccccc7C6=O)[C@H](O)C[C@@]3(C)[C@@H]5CC[C@H]4[C@]2(C)CS1`, the IC50 in test [1] was found to be 224 nM; in test [2], 14 nM; in test [3] it was 14 nM.

Regarding `CC(C)C1=N[C@H]2CC[C@]34C[C@]35C(=O)C[C@]3(C)[C@@H]([C@H](C)N(C)C)[C@H](O)C[C@@]3(C)[C@@H]5CC[C@H]4[C@]2(C)C=C1`, the IC50 in test [1] is 679 nM; in test [2] it was 25 nM; in test [3] it was 16 nM.

For the compound `CCN1C[C@]2(C)[C@H](CC=C3C[C@H]4C(=O)C[C@]5(C)[C@@H]([C@H](C)N(C)C)[C@H](O)C[C@@]5(C)[C@@H]4CC[C@H]32)N=C1C(C)C`, the IC50 was 3330 nM in test [1], over 10000 nM in test [2] and over 10000 nM in test [3].

In the case of `C[C@@H]([C@H]1[C@H](O)C[C@@]2(C)[C@@H]3CC[C@H]4[C@]5(C)COC(C(F)(C(F)(F)F)C(F)(F)F)=N[C@H]5CC[C@@]45C[C@@]35C(=O)C[C@]12C)N(C)C`, the IC50 was over 10000 nM in test [1], 3000 nM in test [2] and 1700 nM in test [3].

As for `CC(C)C1=N[C@H]2CC[C@]34C[C@]35C(=O)C[C@]3(C)[C@@H]([C@H](C)N(C)C)[C@H](O)C[C@@]3(C)[C@@H]5CC[C@H]4[C@]2(C)CC1`, the IC50 is over 10000 nM in test [1], 618 nM in test [2] and 294 nM in test [3].

For `CC(C)C1=N[C@H]2CC[C@]34C[C@]35C(=O)C[C@]3(C)[C@@H]([C@H](C)N(C)CCCc6ccccc6)[C@H](O)C[C@@]3(C)[C@@H]5CC[C@H]4[C@]2(C)CS1`, the IC50 in test [1] turned out to be 1430 nM; in test [2], 76 nM; in test [3], 79 nM.

In the case of `CC(C)C1=N[C@H]2CC[C@]34C[C@]35C(=O)C[C@]3(C)[C@@H]([C@H](C)N(C)CCN6C(=O)c7ccccc7C6=O)[C@H](O)C[C@@]3(C)[C@@H]5CC[C@H]4[C@]2(C)CS1`, the IC50 in test [1] was found to be 653 nM; in test [2] it was 70 nM; in test [3], 24 nM.

Take `CC(C)C1=N[C@H]2CC[C@]34C[C@]35C(=O)C[C@]3(C)[C@@H]([C@H](C)N(C)Cc6cccc(C(F)(F)F)c6)[C@H](O)C[C@@]3(C)[C@@H]5CC[C@H]4[C@]2(C)CS1`: the IC50 was over 10000 nM in test [1], 3 nM in test [2] and 9 nM in test [3].

These data come from ChEMBL document CHEMBL1781893, “New potent human acetylcholinesterase inhibitors in the tetracyclic triterpene series with inhibitory potency on amyloid β aggregation” (Eur J Med Chem, 2011).
